How the values were obtained:
Assay type in all cases: in vivo
[1] = system: Glutathione S-transferase, mu 3 (Gstm3); test: Microarray gene expression in white adipose tissue of Tempol-fed mice
Procedure: (§1) To assess the effects of Tempol on gene expression, Tempol was administered to experimental mice at a dose of 5 mg/g of food from 14 months to 31 months after birth. Mice receiving the same food without the addition of Tempol were used as a negative control. At the age of 31 months, the experimental animals were sacrificed and the hearts were surgically removed. The expression of a broad spectrum of genes in white adipose tissue tissue was assessed using chip-based microarray technology. Such chips are well known in the art and are widely used to assess gene expression.

[2] = system: Glutathione S-transferase, theta 1 (Gstt1); test: as above
Procedure: as §1

[3] = system: Glutathione S-transferase, alpha 4 (Gsta4); test: as above
Procedure: as §1

[4] = system: Glutathione S-transferase, mu 4 (Gstm4); test: as above
Procedure: as §1

[5] = system: Glutathione S-transferase, mu 1 (Gstm1); test: as above
Procedure: as §1

[6] = system: Glutathione S-transferase kappa1 (Gstk1); test: as above
Procedure: as §1

[7] = system: Glutathione S-transferase, alpha 3 (Gsta3); test: as above
Procedure: as §1

[8] = system: Glutathione S-transferase, pi 1 (Gstp1); test: as above
Procedure: as §1

[9] = system: Glutathione S-transferase, mu 6 (Gstm6); test: as above
Procedure: as §1

[10] = system: Glutathione S-transferase, theta 2 (Gstt2); test: as above
Procedure: as §1

[11] = system: Gstm3, Gstm6, Gsta3, Gstt1, Gsta4, Gstm1, Gstm4, Gstt2, Gstp1, or Gstk1; test: Treatment of a human subject with a nitroxide antioxidant, serum level of GST; details: 1500 mg per day for 180 days
Procedure: (§2) A 70-kilogram human subject over the age of 65 is identified for decreased expression level of Gstm3, Gstm6, Gsta3, Gstt1, Gsta4, Gstm1, Gstm4, Gstt2, Gstp1, or Gstk1. The human subject is administered a dose of 1500 mg of a nitroxide antioxidant (e.g., Tempol) per day for 180 days. This may be administered in a single dose, or may be administered as a number of smaller doses over a 24-hour period: for example, three 500-mg doses at eight-hour intervals. Following treatment, the serum level of Gstm3, Gstm6, Gsta3, Gstt1, Gsta4, Gstm1, Gstm4, Gstt2, Gstp1, or Gstk1, is increased.
as §2, with “65 and having a cardiovascular disease” for “65”
as §2, with “subject” for “subject over the age of 65”
as §2, with “subject” for “subject over the age of 65”, “Gstk1 that is associated with a disease (e.g., caused by or causing a disease).” for “Gstk1.”
as §2, with “at risk” for “over the age”, “developing a cancer (e.g., colorectal cancer) or having a cancer” for “65”
as §2, with “at risk” for “over the age”, “developing or having an autoimmune disease (e.g., rheumatoid arthritis)” for “65”
A 70-kilogram human subject of person at risk of developing, or having, a condition due to aging is identified. The human subject is administered a dose of 1500 mg of a nitroxide antioxidant (e.g., Tempol) per day for 180 days. […]

[12] = Tempol-treated vs control mice, P-value 0.001
[13] = Tempol-treated vs control mice, microarray
[14] = Tempol-treated vs control mice, P-value 0.003

CC1(C)CC(O)CC(C)(C)N1[O] [Tempol, 4-hydroxy-2,2,6,6-tetramethylpiperidine-1-oxyl]
Expression, Tempol-treated mice ([1]; Tempol 5 mg/g of food from 14 to 31 months after birth, microarray, control mice 10): 74
Fold change [1, 12]: 7.52
Change in expression (in words) [1, 13]: statistically significant increase in expression
Expression, Tempol-treated mice ([2]; Tempol 5 mg/g of food from 14 to 31 months after birth, microarray, control mice 1017): 1619
Fold change [2, 12]: 1.59
Change in expression (in words) [2, 13]: statistically significant increase in expression
Expression, Tempol-treated mice ([3]; Tempol 5 mg/g of food from 14 to 31 months after birth, microarray, control mice 195): 284
Fold change ([3]; Tempol-treated vs control mice, P-value 0.006): 1.45
Change in expression (in words) [3, 13]: statistically significant increase in expression
Expression, Tempol-treated mice ([4]; Tempol 5 mg/g of food from 14 to 31 months after birth, microarray, control mice 416): 533
Fold change [4, 14]: 1.28
Change in expression (in words) [4, 13]: statistically significant increase in expression
Expression, Tempol-treated mice ([5]; Tempol 5 mg/g of food from 14 to 31 months after birth, microarray, control mice 6291): 8548
Fold change [5, 14]: 1.36
Change in expression (in words) [5, 13]: statistically significant increase in expression
Expression, Tempol-treated mice ([6]; Tempol 5 mg/g of food from 14 to 31 months after birth, microarray, control mice 1140): 1325
Fold change ([6]; Tempol-treated vs control mice, P-value 0.015): 1.16
Change in expression (in words) [6, 13]: statistically significant increase in expression
Expression, Tempol-treated mice ([7]; Tempol 5 mg/g of food from 14 to 31 months after birth, microarray, control mice 668): 1183
Fold change ([7]; Tempol-treated vs control mice, P-value 0.004): 1.77
Change in expression (in words) [7, 13]: statistically significant increase in expression
Expression, Tempol-treated mice ([8]; Tempol 5 mg/g of food from 14 to 31 months after birth, microarray, control mice 5711): 6812
Fold change ([8]; Tempol-treated vs control mice, P-value 0.005): 1.19
Change in expression (in words) [8, 13]: statistically significant increase in expression
Expression, Tempol-treated mice ([9]; Tempol 5 mg/g of food from 14 to 31 months after birth, microarray, control mice 147): 265
Fold change ([9]; Tempol-treated vs control mice, P-value 0.034): 1.8
Change in expression (in words) [9, 13]: statistically significant increase in expression
Expression, Tempol-treated mice ([10]; Tempol 5 mg/g of food from 14 to 31 months after birth, microarray, control mice 446): 546
Fold change ([10]; Tempol-treated vs control mice, P-value 0.035): 1.22
Change in expression (in words) [10, 13]: statistically significant increase in expression
Serum level of GST following treatment ([11]; Example 2: human subject over the age of 65 with decreased expression): increased
Serum level of GST following treatment ([11]; Example 3: human subject over the age of 65 having a cardiovascular disease): increased
Serum level of GST following treatment ([11]; Example 4: human subject with decreased expression level): increased
Serum level of GST following treatment ([11]; Example 5: decreased expression associated with a disease): increased
Serum level of GST following treatment ([11]; Example 6: human subject at risk of developing or having a cancer): increased
Serum level of GST following treatment ([11]; Example 7: human subject at risk of developing or having an autoimmune disease): increased
Serum level of GST following treatment ([11]; Example 8: human subject, condition due to aging): increased
Serum level of GST following treatment ([11]; Example 9: human subject at risk of developing or having a neurodegenerative disease): increased
Serum level of GST following treatment ([11]; Example 10: human subject having an infection): increased

— patent publication US10441578B2, “Altering expression level of glutathione S-transferase genes by treating a human subject with a nitroxide” (priority 2018, dated 2019)
